pEC50, pIC50: −log10 of the molar value.
Assays:
Cytochrome P450 3A4 = Cytochrome P450 3A4 (Homo sapiens, UniProt P08684); assay: Inhibition of CYP3A4 (unknown origin); type: ADME
[1] = biological target: Alpha-2A adrenergic receptor (Homo sapiens) (UniProt P08913); assay: Agonist activity at adrenergic a2a receptor (unknown origin) expressed in CHO cells assessed as calcium mobilization at 3 uM; type: functional, cell-based
[2] = biological target: Cysteinyl leukotriene receptor 2 (Homo sapiens) (UniProt Q9NS75); assay: Antagonist activity at CysLT2 receptor (unknown origin) expressed in CHO cells assessed as calcium mobilization at 3 uM; type: functional, cell-based
[3] = biological target: T1, Muscarinic acetylcholine receptor M2 (Homo sapiens) (UniProt P08172); assay: Agonist activity at human muscarinic M2 acetylcholine receptor expressed in CHO cells co-expressing Galpha16 assessed as calcium mobilization at 30 uM by FLIPR assay; type: functional, cell-based
T1 sequence (whole entry): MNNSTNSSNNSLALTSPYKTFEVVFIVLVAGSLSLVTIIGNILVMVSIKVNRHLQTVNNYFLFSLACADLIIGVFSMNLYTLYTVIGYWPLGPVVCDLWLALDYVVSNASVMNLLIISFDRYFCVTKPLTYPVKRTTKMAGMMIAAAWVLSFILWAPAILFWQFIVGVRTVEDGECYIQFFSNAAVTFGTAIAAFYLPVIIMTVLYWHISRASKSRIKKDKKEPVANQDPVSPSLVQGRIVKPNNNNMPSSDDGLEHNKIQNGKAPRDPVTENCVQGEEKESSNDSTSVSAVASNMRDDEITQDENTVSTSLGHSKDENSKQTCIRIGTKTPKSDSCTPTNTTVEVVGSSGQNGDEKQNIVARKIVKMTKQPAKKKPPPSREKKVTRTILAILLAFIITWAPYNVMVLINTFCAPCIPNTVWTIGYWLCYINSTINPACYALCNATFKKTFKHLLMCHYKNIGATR

[4] = biological target: 5-hydroxytryptamine receptor 4 (Homo sapiens) (UniProt Q13639); assay: Antagonist activity at 5-HT4B receptor (unknown origin) expressed in CHO cells assessed as calcium mobilization at 3 uM; type: functional, cell-based
Chain of 5-hydroxytryptamine receptor 4 (Homo sapiens) (Q13639 whole entry): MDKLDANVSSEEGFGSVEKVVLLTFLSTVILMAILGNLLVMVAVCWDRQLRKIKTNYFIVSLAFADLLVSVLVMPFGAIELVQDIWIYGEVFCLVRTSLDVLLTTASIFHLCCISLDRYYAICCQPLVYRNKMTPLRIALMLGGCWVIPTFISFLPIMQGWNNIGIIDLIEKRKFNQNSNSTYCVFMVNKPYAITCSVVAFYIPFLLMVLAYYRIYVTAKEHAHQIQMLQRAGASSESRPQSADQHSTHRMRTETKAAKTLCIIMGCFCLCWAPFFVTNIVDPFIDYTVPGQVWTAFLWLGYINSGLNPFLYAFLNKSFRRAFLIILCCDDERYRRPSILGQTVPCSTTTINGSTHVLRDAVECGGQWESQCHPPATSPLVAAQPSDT

[5] = biological target: Aryl hydrocarbon receptor (Homo sapiens, UniProt P35869); assay: Induction of human AhR
Chain of Aryl hydrocarbon receptor (P35869 whole entry): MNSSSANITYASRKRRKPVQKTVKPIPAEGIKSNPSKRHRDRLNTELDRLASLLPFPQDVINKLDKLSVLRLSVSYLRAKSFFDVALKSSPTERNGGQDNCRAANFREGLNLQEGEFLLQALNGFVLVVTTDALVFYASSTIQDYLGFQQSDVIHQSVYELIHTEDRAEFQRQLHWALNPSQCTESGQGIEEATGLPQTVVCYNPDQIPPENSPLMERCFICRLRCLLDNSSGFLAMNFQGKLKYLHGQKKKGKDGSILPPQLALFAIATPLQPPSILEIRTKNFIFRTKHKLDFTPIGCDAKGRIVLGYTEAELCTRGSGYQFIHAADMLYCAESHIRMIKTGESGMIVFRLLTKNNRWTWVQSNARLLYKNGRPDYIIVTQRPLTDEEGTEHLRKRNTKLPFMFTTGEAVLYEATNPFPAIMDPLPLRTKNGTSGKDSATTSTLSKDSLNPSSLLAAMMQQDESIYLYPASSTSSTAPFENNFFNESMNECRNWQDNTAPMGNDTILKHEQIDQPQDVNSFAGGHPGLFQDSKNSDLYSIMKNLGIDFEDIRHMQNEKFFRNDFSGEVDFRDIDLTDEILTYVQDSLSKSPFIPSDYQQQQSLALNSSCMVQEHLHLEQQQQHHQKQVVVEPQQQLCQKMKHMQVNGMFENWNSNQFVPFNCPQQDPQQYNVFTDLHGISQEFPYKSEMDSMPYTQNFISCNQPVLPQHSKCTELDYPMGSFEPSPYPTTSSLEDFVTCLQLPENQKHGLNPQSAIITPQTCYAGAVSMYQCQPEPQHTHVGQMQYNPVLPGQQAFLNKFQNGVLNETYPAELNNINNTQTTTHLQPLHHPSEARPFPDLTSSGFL

[6] = biological target: Alpha-2C adrenergic receptor (Homo sapiens) (UniProt P18825); assay: Agonist activity at adrenergic a2C receptor (unknown origin) expressed in CHO cells assessed as calcium mobilization at 3 uM; type: functional, cell-based
Rattus norvegicus = assay: Antipsychotic-like activity in sc dosed rat assessed as inhibition of METH-induced locomotor hyperactivity; type: functional
[7] = biological target: Neuropeptide Y receptor type 2 (Homo sapiens) (UniProt P49146); assay: Agonist activity at NPY2 receptor (unknown origin) expressed in CHO cells assessed as calcium mobilization at 3 uM; type: functional, cell-based
[8] = biological target: 5-hydroxytryptamine receptor 1E (Homo sapiens) (UniProt P28566); assay: Antagonist activity at 5-HT1E receptor (unknown origin) expressed in CHO cells assessed as calcium mobilization at 3 uM; type: functional, cell-based
Chain of 5-hydroxytryptamine receptor 1E (Homo sapiens) (P28566 whole entry): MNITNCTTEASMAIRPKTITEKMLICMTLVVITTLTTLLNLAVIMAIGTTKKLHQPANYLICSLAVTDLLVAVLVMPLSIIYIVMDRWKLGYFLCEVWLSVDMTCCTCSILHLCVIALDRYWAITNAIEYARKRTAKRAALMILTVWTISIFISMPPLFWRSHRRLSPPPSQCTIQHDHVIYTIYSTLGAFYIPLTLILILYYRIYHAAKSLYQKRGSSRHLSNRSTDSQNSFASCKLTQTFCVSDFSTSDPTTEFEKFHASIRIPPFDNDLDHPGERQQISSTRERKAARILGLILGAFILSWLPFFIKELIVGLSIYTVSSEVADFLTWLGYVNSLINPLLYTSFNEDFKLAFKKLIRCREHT

Cytochrome P450 2C9 = Cytochrome P450 2C9 (Homo sapiens, UniProt P11712); assay: Inhibition of CYP2C9 (unknown origin); type: ADME
[9] = biological target: 5-hydroxytryptamine receptor 4 (Homo sapiens) (UniProt Q13639); assay: Agonist activity at 5-HT4B receptor (unknown origin) expressed in CHO cells assessed as calcium mobilization at 3 uM; type: functional, cell-based
[10] = biological target: D(4) dopamine receptor (Homo sapiens) (UniProt P21917); assay: Antagonist activity at dopamine D4 receptor (unknown origin) expressed in CHO cells assessed as calcium mobilization at 3 uM; type: functional, cell-based
Chain of D(4) dopamine receptor (Homo sapiens) (P21917 whole entry): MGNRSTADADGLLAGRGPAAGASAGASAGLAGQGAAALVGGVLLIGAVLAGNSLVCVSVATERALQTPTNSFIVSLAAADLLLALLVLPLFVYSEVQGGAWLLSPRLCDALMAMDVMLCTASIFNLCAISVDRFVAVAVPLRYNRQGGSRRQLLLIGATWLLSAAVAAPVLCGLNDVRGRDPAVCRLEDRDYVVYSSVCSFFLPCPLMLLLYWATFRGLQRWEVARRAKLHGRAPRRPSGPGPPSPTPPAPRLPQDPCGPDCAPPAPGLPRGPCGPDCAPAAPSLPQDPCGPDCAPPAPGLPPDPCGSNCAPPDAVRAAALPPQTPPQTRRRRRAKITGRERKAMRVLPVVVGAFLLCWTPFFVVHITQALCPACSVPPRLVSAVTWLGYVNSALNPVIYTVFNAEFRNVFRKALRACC

[11] = biological target: Alpha-2B adrenergic receptor (Homo sapiens) (UniProt P18089); assay: Agonist activity at adrenergic a2B receptor (unknown origin) expressed in CHO cells assessed as calcium mobilization at 3 uM; type: functional, cell-based
Chain of Alpha-2B adrenergic receptor (Homo sapiens) (P18089 whole entry): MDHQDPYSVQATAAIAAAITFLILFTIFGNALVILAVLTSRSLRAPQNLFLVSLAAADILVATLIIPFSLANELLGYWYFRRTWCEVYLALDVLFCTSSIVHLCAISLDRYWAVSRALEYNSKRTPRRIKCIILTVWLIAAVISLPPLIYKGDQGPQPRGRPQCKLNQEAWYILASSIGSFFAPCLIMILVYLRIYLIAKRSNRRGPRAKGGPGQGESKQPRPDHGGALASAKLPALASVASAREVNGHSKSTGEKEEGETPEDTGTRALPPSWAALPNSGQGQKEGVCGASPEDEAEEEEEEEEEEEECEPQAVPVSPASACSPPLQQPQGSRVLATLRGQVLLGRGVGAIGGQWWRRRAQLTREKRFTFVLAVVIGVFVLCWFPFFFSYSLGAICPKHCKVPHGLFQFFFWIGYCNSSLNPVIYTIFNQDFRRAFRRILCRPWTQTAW

[12] = biological target: Histamine H1 receptor (Homo sapiens) (UniProt P35367); assay: Binding affinity to histamine H1 receptor (unknown origin) at 3 uM by radioligand-binding assay
[13] = biological target: 5-hydroxytryptamine receptor 7 (Homo sapiens) (UniProt P34969); assay: Antagonist activity at 5-HT7B receptor (unknown origin) expressed in CHO cells assessed as calcium mobilization at 3 uM; type: functional, cell-based
Cytochrome P450 2D6 = Cytochrome P450 2D6 (Homo sapiens, UniProt P10635); assay: Inhibition of CYP2D6 (unknown origin); type: ADME
[14] = biological target: 5-hydroxytryptamine receptor 2A (Homo sapiens) (UniProt P28223); assay: Agonist activity at 5-HT2a receptor (unknown origin) expressed in CHO cells assessed as calcium mobilization at 3 uM; type: functional, cell-based
[15] = biological target: D(4) dopamine receptor (Homo sapiens) (UniProt P21917); assay: Agonist activity at dopamine D4 receptor (unknown origin) expressed in CHO cells assessed as calcium mobilization at 3 uM; type: functional, cell-based
[16] = biological target: D(2) dopamine receptor (Homo sapiens) (UniProt P14416); assay: Agonist activity at dopamine D2S receptor (unknown origin) expressed in CHO cells assessed as calcium mobilization at 3 uM; type: functional, cell-based
Chain of D(2) dopamine receptor (Homo sapiens) (P14416 whole entry): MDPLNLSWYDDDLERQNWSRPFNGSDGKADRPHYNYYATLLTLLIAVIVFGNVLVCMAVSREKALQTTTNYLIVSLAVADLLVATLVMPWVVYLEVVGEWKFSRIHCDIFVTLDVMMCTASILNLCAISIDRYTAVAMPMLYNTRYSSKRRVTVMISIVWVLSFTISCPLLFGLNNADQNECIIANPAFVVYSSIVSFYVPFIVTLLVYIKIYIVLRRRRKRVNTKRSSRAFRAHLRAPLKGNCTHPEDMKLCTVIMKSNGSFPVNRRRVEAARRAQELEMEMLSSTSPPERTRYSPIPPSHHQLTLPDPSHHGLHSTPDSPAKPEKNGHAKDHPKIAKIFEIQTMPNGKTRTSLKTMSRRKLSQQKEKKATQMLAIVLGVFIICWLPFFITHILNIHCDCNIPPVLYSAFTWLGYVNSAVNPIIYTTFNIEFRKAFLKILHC

[17] = biological target: Muscarinic acetylcholine receptor M3 (Homo sapiens) (UniProt P20309); assay: Agonist activity at human muscarinic M3 acetylcholine receptor expressed in CHO cells assessed as calcium mobilization at 30 uM by FLIPR assay; type: functional, cell-based
Chain of Muscarinic acetylcholine receptor M3 (Homo sapiens) (P20309 whole entry, looked up): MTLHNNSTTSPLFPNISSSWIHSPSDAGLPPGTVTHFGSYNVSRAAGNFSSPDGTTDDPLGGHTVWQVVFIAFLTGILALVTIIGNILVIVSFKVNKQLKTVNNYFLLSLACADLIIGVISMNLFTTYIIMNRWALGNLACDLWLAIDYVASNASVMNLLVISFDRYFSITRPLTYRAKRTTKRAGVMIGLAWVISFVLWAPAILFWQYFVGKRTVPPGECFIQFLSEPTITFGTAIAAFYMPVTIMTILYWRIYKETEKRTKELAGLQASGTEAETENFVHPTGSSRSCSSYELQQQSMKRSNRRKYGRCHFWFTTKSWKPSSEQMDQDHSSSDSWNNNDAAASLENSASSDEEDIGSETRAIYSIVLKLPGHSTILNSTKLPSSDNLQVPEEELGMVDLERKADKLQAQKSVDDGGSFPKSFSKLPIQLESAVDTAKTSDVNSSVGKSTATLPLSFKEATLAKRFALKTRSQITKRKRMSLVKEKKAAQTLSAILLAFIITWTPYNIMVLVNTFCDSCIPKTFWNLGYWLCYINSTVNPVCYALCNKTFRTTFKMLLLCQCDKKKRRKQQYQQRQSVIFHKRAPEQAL

[18] = biological target: Muscarinic acetylcholine receptor M4 (Homo sapiens, UniProt P08173); assay: Partial agonist activity at human muscarinic M4 acetylcholine receptor expressed in CHO cells co-expressing Galpha16 assessed as calcium mobilization by FLIPR assay; type: functional, cell-based
[19] = biological target: Adenosine receptor A1 (Homo sapiens) (UniProt P30542); assay: Agonist activity at adenosine a1 receptor (unknown origin) expressed in CHO cells assessed as calcium mobilization at 3 uM; type: functional, cell-based
CHO = assay: Agonist activity at GaBaB receptor (unknown origin) expressed in CHO cells assessed as calcium mobilization at 3 uM; type: cell-based; settings: Homo sapiens
[20] = biological target: Delta-type opioid receptor (Homo sapiens) (UniProt P41143); assay: Antagonist activity at opiate delta1 receptor (unknown origin) expressed in CHO cells assessed as calcium mobilization at 3 uM; type: functional, cell-based
[21] = biological target: Muscarinic acetylcholine receptor M1 (Homo sapiens, UniProt P11229); assay: Agonist activity at human muscarinic M1 acetylcholine receptor expressed in CHO cells assessed as calcium mobilization by FLIPR assay; type: functional, cell-based
[22] = biological target: Alpha-2A adrenergic receptor (Homo sapiens) (UniProt P08913); assay: Antagonist activity at adrenergic a2a receptor (unknown origin) expressed in CHO cells assessed as calcium mobilization at 3 uM; type: functional, cell-based
[23] = biological target: 5-hydroxytryptamine receptor 6 (Homo sapiens) (UniProt P50406); assay: Agonist activity at 5-HT6 receptor (unknown origin) expressed in CHO cells assessed as calcium mobilization at 3 uM; type: functional, cell-based
Chain of 5-hydroxytryptamine receptor 6 (Homo sapiens) (P50406 whole entry): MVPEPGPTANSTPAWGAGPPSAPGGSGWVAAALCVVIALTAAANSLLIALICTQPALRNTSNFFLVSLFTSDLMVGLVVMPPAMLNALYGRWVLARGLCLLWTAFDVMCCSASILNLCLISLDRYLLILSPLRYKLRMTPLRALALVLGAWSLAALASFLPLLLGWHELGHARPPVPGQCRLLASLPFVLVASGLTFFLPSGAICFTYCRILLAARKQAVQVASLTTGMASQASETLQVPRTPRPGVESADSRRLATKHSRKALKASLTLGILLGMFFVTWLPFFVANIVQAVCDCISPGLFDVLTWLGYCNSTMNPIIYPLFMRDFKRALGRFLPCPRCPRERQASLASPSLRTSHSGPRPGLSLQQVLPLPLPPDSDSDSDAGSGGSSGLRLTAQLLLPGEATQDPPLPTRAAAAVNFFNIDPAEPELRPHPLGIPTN

[24] = biological target: Beta-1 adrenergic receptor (Homo sapiens) (UniProt P08588); assay: Agonist activity at adrenergic beta1 receptor (unknown origin) expressed in CHO cells assessed as calcium mobilization at 3 uM; type: functional, cell-based
Chain of Beta-1 adrenergic receptor (Homo sapiens) (P08588 whole entry, looked up): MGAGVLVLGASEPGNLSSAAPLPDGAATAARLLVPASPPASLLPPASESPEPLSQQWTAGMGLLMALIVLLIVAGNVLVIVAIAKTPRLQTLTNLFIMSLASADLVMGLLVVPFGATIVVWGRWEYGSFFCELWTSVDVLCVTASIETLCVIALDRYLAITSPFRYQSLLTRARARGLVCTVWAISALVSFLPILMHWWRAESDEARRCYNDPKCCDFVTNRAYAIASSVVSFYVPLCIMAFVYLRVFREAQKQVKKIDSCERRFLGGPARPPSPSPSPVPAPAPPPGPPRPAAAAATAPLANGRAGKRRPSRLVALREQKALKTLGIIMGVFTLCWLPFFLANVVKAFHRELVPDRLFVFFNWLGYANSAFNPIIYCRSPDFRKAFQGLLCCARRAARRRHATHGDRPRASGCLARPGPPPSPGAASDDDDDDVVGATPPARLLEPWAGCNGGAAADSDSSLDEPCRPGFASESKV

[25] = biological target: D(2) dopamine receptor (Homo sapiens) (UniProt P14416); assay: Agonist activity at dopamine D2L receptor (unknown origin) expressed in CHO cells assessed as calcium mobilization at 3 uM; type: functional, cell-based

Chain of Alpha-2A adrenergic receptor (Homo sapiens) (P08913 whole entry): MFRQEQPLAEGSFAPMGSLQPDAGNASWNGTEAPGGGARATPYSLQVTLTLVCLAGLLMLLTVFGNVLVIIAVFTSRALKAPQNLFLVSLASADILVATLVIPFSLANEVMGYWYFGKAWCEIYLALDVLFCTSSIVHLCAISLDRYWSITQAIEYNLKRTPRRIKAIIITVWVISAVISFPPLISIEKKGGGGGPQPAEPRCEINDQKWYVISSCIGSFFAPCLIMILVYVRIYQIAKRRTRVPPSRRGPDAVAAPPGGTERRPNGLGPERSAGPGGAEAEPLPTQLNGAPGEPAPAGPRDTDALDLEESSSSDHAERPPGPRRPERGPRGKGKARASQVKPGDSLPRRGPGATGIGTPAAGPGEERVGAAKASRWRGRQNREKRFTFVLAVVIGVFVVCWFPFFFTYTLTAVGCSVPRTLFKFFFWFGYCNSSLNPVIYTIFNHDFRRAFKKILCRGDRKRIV

SMILES: CCOC(=O)N1[C@@H]2CC[C@H]1C[C@H](CN1CC[C@@H](N3Cc4ccccc4NC3=O)C1)C2
- pIC50 (Cytochrome P450 3A4): < 5.70
- Activity [1]: -0.95%
- inhibition [2]: 18.8%
- Activity [3]: 3%
- inhibition [4]: -1.57%
- Activity [5]: Not Active
- Activity [6]: -0.89%
- ED50 (Rattus norvegicus): 3 mg/kg
- Activity [7]: 1.73%
- inhibition [8]: -0.04%
- pIC50 (Cytochrome P450 2C9): < 5.70
- Activity [9]: -1.42%
- inhibition [10]: 11.6%
- Activity [11]: -0.18%
- inhibition [12]: 6%
- inhibition [13]: 15.4%
- pIC50 (Cytochrome P450 2D6): < 5.70
- Activity [14]: 0.07%
- Activity [15]: -0.14%
- Activity [16]: -0.5%
- Activity [17]: 2%
- pEC50 [18]: 7.07
- Activity [19]: -0.25%
- Activity (CHO): 0.7%
- inhibition [20]: 20.9%
- pEC50 [21]: 7.85
- inhibition [22]: 9.18%
- Activity [23]: -0.54%
- Activity [24]: 0.03%
- Activity [25]: 0.06%

— ChEMBL document CHEMBL3632469, “Discovery of dihydroquinazolinone derivatives as potent, selective, and CNS-penetrant M(1) and M(4) muscarinic acetylcholine receptors agonists” (Bioorg Med Chem Lett, 2015)
